Test results: ChEMBL document CHEMBL1140067, “Synthesis, in vitro, and in vivo biological evaluation and molecular docking simulations of chiral alcohol and ether derivatives of the 1,5-diarylpyrrole scaffold as novel anti-inflammatory and analgesic agents” (Bioorg Med Chem, 2008)

Molecular target: T1, Prostaglandin G/H synthase 2 (Mus musculus, UniProt Q05769)
T1 sequence (Q05769 whole entry): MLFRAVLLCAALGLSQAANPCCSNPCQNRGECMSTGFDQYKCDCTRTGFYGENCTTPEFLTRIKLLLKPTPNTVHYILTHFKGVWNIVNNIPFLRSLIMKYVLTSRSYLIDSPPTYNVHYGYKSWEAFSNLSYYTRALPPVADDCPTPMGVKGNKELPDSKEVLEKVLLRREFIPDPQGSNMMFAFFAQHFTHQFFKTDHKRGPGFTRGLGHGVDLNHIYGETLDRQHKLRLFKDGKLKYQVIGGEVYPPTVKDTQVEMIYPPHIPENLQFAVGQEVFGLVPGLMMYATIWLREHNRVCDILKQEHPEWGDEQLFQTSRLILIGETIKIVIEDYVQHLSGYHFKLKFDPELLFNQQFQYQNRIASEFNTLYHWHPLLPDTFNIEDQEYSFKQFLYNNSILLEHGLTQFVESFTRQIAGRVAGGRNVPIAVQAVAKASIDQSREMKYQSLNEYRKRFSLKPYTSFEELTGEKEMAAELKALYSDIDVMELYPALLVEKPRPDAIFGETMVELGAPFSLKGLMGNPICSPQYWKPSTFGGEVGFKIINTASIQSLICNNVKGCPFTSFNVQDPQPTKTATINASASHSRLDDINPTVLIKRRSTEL
Description: Inhibition of COX2 in LPS-stimulated mouse J774 cells assessed as inhibition of PGE2 production after 15 mins by radioimmunoassay

| IC50 | SMILES |
| --- | --- |
| 0.25 µM | CCOC(=O)[C@@H](OCC)c1cc(-c2ccc(S(C)(=O)=O)cc2)n(-c2cccc(F)c2)c1C |
| 1.1 µM | CCOC(=O)[C@@H](O)c1cc(-c2ccc(S(C)(=O)=O)cc2)n(-c2cccc(F)c2)c1C |
| 0.1 µM | CCOC(=O)[C@@H](OCC)c1cc(-c2ccc(S(C)(=O)=O)cc2)n(-c2ccccc2)c1C |
| 0.1 µM | CCOC(=O)C(OCC)c1cc(-c2ccc(S(C)(=O)=O)cc2)n(-c2cccc(F)c2)c1C (racemic) |
| 0.18 µM | CCOC(=O)C(OCC)c1cc(-c2ccc(S(C)(=O)=O)cc2)n(-c2ccccc2)c1C (racemic) |
| 0.14 µM | CCOC(=O)[C@@H](OCC)c1cc(-c2ccc(S(C)(=O)=O)cc2)n(-c2ccc(OC)cc2)c1C |
| 0.09 µM | CCOC(=O)[C@H](OCC)c1cc(-c2ccc(S(C)(=O)=O)cc2)n(-c2ccc(OC)cc2)c1C |
| 0.14 µM | CCOC(=O)[C@H](OCC)c1cc(-c2ccc(S(C)(=O)=O)cc2)n(-c2ccccc2)c1C |
| 0.075 µM | CCOC(=O)[C@H](O)c1cc(-c2ccc(S(C)(=O)=O)cc2)n(-c2cccc(F)c2)c1C |
| 0.13 µM | CCOC(=O)C(OCC)c1cc(-c2ccc(S(C)(=O)=O)cc2)n(-c2ccc(OC)cc2)c1C (racemic) |
| 0.81 µM | CCOC(=O)[C@H](OCC)c1cc(-c2ccc(S(C)(=O)=O)cc2)n(-c2cccc(F)c2)c1C |

| SMILES | IC50 |
| --- | --- |
| CCOC(=O)C(O)c1cc(-c2ccc(S(C)(=O)=O)cc2)n(-c2cccc(F)c2)c1C (racemic) | 0.12 µM |

Molecular target: Prostaglandin G/H synthase 1 (Homo sapiens, UniProt P23219)
Assay: Inhibition of COX1 in human whole blood assessed as inhibition of LPS-stimulated PGE2 production by radioimmunoassay
Type: tissue-based

Prostaglandin G/H synthase 1 (Homo sapiens, UniProt P23219), sequence (P23219 whole entry): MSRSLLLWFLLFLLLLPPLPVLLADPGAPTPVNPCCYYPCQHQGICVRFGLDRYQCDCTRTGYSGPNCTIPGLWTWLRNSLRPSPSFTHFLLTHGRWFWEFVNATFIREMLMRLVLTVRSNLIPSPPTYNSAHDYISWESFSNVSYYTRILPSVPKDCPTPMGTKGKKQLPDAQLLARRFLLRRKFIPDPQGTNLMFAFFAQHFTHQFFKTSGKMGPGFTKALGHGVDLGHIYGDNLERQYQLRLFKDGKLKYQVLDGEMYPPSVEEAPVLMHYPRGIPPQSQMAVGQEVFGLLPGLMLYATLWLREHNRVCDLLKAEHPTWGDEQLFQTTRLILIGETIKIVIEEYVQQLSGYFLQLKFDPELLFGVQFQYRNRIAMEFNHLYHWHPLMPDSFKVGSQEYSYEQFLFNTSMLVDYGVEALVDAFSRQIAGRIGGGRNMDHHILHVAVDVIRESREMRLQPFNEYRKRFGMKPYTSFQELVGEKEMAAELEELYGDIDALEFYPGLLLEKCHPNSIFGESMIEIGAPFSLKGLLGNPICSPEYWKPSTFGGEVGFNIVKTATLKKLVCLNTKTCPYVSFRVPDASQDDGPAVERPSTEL

| SMILES | IC50 |
| --- | --- |
| CCOC(=O)C(O)c1cc(-c2ccc(S(C)(=O)=O)cc2)n(-c2cccc(F)c2)c1C (racemic) | 21.3 µM |

Molecular target: T2, Prostaglandin G/H synthase 2 (Homo sapiens, UniProt P35354)
T2 sequence (P35354 whole entry): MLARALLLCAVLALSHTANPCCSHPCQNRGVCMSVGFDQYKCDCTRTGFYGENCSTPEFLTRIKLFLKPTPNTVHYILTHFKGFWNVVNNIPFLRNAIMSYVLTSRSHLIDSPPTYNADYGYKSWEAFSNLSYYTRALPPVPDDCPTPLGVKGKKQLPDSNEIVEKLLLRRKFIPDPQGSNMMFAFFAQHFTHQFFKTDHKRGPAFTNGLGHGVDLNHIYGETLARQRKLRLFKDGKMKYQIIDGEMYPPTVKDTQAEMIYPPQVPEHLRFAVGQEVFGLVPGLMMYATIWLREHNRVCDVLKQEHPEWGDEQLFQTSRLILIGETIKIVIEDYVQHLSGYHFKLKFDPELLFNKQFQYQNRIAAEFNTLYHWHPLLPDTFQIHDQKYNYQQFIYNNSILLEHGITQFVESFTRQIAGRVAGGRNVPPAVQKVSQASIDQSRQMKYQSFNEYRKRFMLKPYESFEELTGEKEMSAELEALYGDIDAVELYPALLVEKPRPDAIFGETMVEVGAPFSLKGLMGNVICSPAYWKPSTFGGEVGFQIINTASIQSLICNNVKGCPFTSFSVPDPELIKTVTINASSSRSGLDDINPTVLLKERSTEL
Assay: Inhibition of COX2 in human whole blood assessed as inhibition of TXB2 production by radioimmunoassay
Type: tissue-based

| SMILES | IC50 |
| --- | --- |
| CCc1cccc2c3c([nH]c12)C(CC)(CC(=O)O)OCC3 (configuration not stated) [ETODOLAC] | 2 µM |
| CCOC(=O)C(O)c1cc(-c2ccc(S(C)(=O)=O)cc2)n(-c2cccc(F)c2)c1C (racemic) | 3.8 µM |

System: Rattus norvegicus
Assay: Analgesic activity against carrageenan-induced hyperalgesia in rat assessed as paw pressure at 20 mg/kg, po after 120 mins
Type: functional

| SMILES | Activity |
| --- | --- |
| CCOC(=O)C(O)c1cc(-c2ccc(S(C)(=O)=O)cc2)n(-c2cccc(F)c2)c1C (racemic) | 47.5 g |

System: Mus musculus
Assay: Analgesic activity against acetic acid-induced writhing in Swiss albino mouse assessed as number of writhes at 10 mg/kg, po administered 30 mins before test
Type: functional

| SMILES | Activity |
| --- | --- |
| CCOC(=O)C(O)c1cc(-c2ccc(S(C)(=O)=O)cc2)n(-c2cccc(F)c2)c1C (racemic) | 26.3 |

System: Rattus norvegicus
Assay: Analgesic activity against carrageenan-induced hyperalgesia in rat assessed as paw pressure at 20 mg/kg, po after 30 mins
Type: functional

| SMILES | Activity |
| --- | --- |
| CCOC(=O)C(O)c1cc(-c2ccc(S(C)(=O)=O)cc2)n(-c2cccc(F)c2)c1C (racemic) | 54.8 g |

System: Rattus norvegicus
Assay: Analgesic activity against carrageenan-induced hyperalgesia in rat assessed as paw pressure at 20 mg/kg, po after 60 mins
Type: functional

| SMILES | Activity |
| --- | --- |
| CCOC(=O)C(O)c1cc(-c2ccc(S(C)(=O)=O)cc2)n(-c2cccc(F)c2)c1C (racemic) | 45.2 g |

Molecular target: T3, Prostaglandin G/H synthase 1 (Mus musculus, UniProt P22437)
T3 sequence (P22437 whole entry): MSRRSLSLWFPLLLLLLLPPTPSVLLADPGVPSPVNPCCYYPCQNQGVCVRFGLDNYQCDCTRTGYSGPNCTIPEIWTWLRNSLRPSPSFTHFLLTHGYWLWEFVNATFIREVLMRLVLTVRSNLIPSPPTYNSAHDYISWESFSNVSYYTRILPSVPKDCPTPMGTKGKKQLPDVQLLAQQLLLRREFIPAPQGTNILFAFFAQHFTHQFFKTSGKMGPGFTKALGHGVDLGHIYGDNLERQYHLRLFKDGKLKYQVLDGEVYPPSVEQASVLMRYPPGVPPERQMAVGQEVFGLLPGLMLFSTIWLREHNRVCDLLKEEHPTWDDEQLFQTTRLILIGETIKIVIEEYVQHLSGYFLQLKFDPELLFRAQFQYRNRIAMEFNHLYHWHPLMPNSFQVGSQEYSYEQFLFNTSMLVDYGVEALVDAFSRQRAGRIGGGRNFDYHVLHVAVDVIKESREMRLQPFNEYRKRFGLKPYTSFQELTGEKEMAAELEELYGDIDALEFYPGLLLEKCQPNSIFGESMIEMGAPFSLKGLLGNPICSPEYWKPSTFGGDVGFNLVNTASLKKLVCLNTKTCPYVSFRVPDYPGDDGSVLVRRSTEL
Assay: Inhibition of COX1 in arachidonic acid-stimulated mouse J774 cells assessed as inhibition of PGE2 production after 15 mins by radioimmunoassay
Type: cell-based

| IC50 | SMILES |
| --- | --- |
| > 100 µM | CCOC(=O)[C@@H](O)c1cc(-c2ccc(S(C)(=O)=O)cc2)n(-c2ccc(OC)cc2)c1C |
| > 100 µM | CCOC(=O)[C@@H](OCC)c1cc(-c2ccc(S(C)(=O)=O)cc2)n(-c2cccc(F)c2)c1C |
| > 100 µM | CCOC(=O)[C@@H](O)c1cc(-c2ccc(S(C)(=O)=O)cc2)n(-c2cccc(F)c2)c1C |
| > 100 µM | CCOC(=O)C(O)c1cc(-c2ccc(S(C)(=O)=O)cc2)n(-c2ccccc2)c1C (racemic) |
| > 100 µM | CCOC(=O)[C@H](O)c1cc(-c2ccc(S(C)(=O)=O)cc2)n(-c2ccc(OC)cc2)c1C |
| > 100 µM | CCOC(=O)[C@@H](O)c1cc(-c2ccc(S(C)(=O)=O)cc2)n(-c2ccccc2)c1C |
| > 100 µM | CCOC(=O)[C@H](O)c1cc(-c2ccc(S(C)(=O)=O)cc2)n(-c2ccccc2)c1C |
| > 100 µM | CCOC(=O)[C@@H](OCC)c1cc(-c2ccc(S(C)(=O)=O)cc2)n(-c2ccccc2)c1C |
| > 100 µM | CCOC(=O)C(OCC)c1cc(-c2ccc(S(C)(=O)=O)cc2)n(-c2cccc(F)c2)c1C (racemic) |
| > 100 µM | CCOC(=O)C(OCC)c1cc(-c2ccc(S(C)(=O)=O)cc2)n(-c2ccccc2)c1C (racemic) |
| > 100 µM | CCOC(=O)C(O)c1cc(-c2ccc(S(C)(=O)=O)cc2)n(-c2ccc(OC)cc2)c1C (racemic) |
| > 100 µM | CCOC(=O)[C@@H](OCC)c1cc(-c2ccc(S(C)(=O)=O)cc2)n(-c2ccc(OC)cc2)c1C |
| > 100 µM | CCOC(=O)[C@H](OCC)c1cc(-c2ccc(S(C)(=O)=O)cc2)n(-c2ccc(OC)cc2)c1C |
| > 100 µM | CCOC(=O)[C@H](OCC)c1cc(-c2ccc(S(C)(=O)=O)cc2)n(-c2ccccc2)c1C |
| > 100 µM | CCOC(=O)[C@H](O)c1cc(-c2ccc(S(C)(=O)=O)cc2)n(-c2cccc(F)c2)c1C |
| > 100 µM | CCOC(=O)C(OCC)c1cc(-c2ccc(S(C)(=O)=O)cc2)n(-c2ccc(OC)cc2)c1C (racemic) |
| > 100 µM | CCOC(=O)[C@H](OCC)c1cc(-c2ccc(S(C)(=O)=O)cc2)n(-c2cccc(F)c2)c1C |

| SMILES | IC50 |
| --- | --- |
| CCOC(=O)C(O)c1cc(-c2ccc(S(C)(=O)=O)cc2)n(-c2cccc(F)c2)c1C (racemic) | > 100 µM |

System: J774
Assay: Selectivity ratio of IC50 for COX1 in arachidonic acid-stimulated mouse J774 cells to IC50 for COX2 in LPS-stimulated mouse J774 cells
Type: cell-based

| SMILES | Ratio IC50 |
| --- | --- |
| CCOC(=O)[C@@H](OCC)c1cc(-c2ccc(S(C)(=O)=O)cc2)n(-c2cccc(F)c2)c1C | > 400 |
| CCOC(=O)[C@@H](O)c1cc(-c2ccc(S(C)(=O)=O)cc2)n(-c2cccc(F)c2)c1C | > 90 |
| CCOC(=O)[C@@H](OCC)c1cc(-c2ccc(S(C)(=O)=O)cc2)n(-c2ccccc2)c1C | > 1000 |
| CCOC(=O)C(OCC)c1cc(-c2ccc(S(C)(=O)=O)cc2)n(-c2cccc(F)c2)c1C (racemic) | > 1000 |
| CCOC(=O)C(OCC)c1cc(-c2ccc(S(C)(=O)=O)cc2)n(-c2ccccc2)c1C (racemic) | > 800 |
| CCOC(=O)[C@@H](OCC)c1cc(-c2ccc(S(C)(=O)=O)cc2)n(-c2ccc(OC)cc2)c1C | > 700 |
| CCOC(=O)C(O)c1cc(-c2ccc(S(C)(=O)=O)cc2)n(-c2cccc(F)c2)c1C (racemic) | > 800 |
| CCOC(=O)[C@H](OCC)c1cc(-c2ccc(S(C)(=O)=O)cc2)n(-c2ccc(OC)cc2)c1C | > 1100 |
| CCOC(=O)[C@H](OCC)c1cc(-c2ccc(S(C)(=O)=O)cc2)n(-c2ccccc2)c1C | > 700 |
| CCOC(=O)[C@H](O)c1cc(-c2ccc(S(C)(=O)=O)cc2)n(-c2cccc(F)c2)c1C | > 1300 |
| CCOC(=O)C(OCC)c1cc(-c2ccc(S(C)(=O)=O)cc2)n(-c2ccc(OC)cc2)c1C (racemic) | > 800 |
| CCOC(=O)[C@H](OCC)c1cc(-c2ccc(S(C)(=O)=O)cc2)n(-c2cccc(F)c2)c1C | > 100 |

System: Mus musculus
Assay: Analgesic activity against acetic acid-induced writhing in Swiss albino mouse assessed as number of writhes at 20 mg/kg, po administered 30 mins before test
Type: functional

| SMILES | Activity |
| --- | --- |
| CCOC(=O)C(O)c1cc(-c2ccc(S(C)(=O)=O)cc2)n(-c2cccc(F)c2)c1C (racemic) | 16.1 |

System: Rattus norvegicus
Assay: Antiinflammatory activity against carrageenan-induced paw edema in rat assessed as paw volume at 20 mg/kg, po administered 4 hrs post carrageenan challenge measured after 60 mins
Type: functional

| SMILES | Activity |
| --- | --- |
| CCOC(=O)C(O)c1cc(-c2ccc(S(C)(=O)=O)cc2)n(-c2cccc(F)c2)c1C (racemic) | 1.4 mL |

System: Mus musculus
Assay: Analgesic activity against acetic acid-induced writhing in po dosed Swiss albino mouse assessed as number of writhes administered 30 mins before test
Type: functional, organism-based

| SMILES | Activity |
| --- | --- |
| CCOC(=O)C(O)c1cc(-c2ccc(S(C)(=O)=O)cc2)n(-c2cccc(F)c2)c1C (racemic) | Dose-dependent effect |
